# How the values were obtained:
# Type in all cases: biochemical
# Conditions in all cases: HotSpot functional assay, isolated kinase enzyme, 33P-ATP
# FLT3 = molecular target: T1, FLT3 (Homo sapiens, UniProt P36888); experiment: RBC HotSpot Kinase Assay, FLT3; design: purchased RBC (Reaction Biology) HotSpot assay
# T1 sequence (P36888 27-993): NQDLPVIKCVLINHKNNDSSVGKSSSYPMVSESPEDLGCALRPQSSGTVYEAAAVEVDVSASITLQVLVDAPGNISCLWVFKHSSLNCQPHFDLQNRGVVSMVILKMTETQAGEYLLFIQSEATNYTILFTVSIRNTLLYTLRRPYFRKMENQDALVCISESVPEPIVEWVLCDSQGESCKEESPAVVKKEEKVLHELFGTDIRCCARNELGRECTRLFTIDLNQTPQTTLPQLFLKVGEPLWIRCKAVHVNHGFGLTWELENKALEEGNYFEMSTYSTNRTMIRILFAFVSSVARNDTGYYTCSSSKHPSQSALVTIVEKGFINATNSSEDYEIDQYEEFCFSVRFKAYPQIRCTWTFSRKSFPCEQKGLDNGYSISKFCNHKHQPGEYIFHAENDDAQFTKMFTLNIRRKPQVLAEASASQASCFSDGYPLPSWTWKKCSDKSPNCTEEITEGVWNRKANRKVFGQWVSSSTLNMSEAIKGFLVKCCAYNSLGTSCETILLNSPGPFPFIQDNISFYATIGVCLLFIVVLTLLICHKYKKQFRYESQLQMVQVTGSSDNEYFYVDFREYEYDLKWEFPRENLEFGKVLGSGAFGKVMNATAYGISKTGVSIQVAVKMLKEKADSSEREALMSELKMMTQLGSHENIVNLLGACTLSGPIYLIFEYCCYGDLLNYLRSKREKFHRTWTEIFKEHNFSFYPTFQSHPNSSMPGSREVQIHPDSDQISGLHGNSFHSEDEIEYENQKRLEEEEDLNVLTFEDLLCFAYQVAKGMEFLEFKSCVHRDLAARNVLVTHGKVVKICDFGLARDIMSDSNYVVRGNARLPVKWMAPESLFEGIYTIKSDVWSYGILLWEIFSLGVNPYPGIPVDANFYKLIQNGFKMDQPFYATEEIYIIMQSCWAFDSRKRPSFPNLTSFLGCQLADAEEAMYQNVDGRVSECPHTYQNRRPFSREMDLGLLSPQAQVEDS
# In short: (§1)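 Isolated kinases, possibly truncated or lacking regulatory receptor regions, were preincubated with compound for 20 min at room temp in 20 mM Hepes pH 7.5, 10 mM MgCl2, 1 mM EGTA, 2 mM DTT, 1% DMSO. Reactions were started with ^33P-ATP and run 2 h at room temperature; activity was read by P81 filter binding.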
# IRAK1 = molecular target: T2, IRAK1 (Homo sapiens, UniProt P51617); experiment: RBC HotSpot Kinase Assay, IRAK1
# T2 construct: purchased RBC (Reaction Biology) HotSpot assay
# T2 sequence (P51617 whole entry): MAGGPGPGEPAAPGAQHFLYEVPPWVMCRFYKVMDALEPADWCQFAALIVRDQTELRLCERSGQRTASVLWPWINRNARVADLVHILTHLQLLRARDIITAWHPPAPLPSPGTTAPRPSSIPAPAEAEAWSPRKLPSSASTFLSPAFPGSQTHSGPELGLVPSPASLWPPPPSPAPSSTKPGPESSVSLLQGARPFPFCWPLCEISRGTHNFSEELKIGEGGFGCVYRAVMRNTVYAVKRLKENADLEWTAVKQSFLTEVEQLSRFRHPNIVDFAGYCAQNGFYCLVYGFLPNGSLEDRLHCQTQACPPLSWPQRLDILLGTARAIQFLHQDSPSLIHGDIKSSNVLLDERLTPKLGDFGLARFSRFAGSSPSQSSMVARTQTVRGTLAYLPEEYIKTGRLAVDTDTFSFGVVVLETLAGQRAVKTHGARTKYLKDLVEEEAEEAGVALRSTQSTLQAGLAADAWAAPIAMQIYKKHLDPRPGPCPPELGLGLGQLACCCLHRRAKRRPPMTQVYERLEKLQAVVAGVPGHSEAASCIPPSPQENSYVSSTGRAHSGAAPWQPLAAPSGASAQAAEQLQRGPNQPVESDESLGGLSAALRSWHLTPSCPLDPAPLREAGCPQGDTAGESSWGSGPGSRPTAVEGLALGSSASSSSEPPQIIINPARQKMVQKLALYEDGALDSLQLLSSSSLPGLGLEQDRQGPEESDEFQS
# In short: as §1
# IRAK4 = molecular target: T3, IRAK4 (Homo sapiens, UniProt Q9NWZ3); experiment: RBC HotSpot Kinase Assay, IRAK4; design: purchased RBC (Reaction Biology) HotSpot assay
# T3 sequence (Q9NWZ3 1-460): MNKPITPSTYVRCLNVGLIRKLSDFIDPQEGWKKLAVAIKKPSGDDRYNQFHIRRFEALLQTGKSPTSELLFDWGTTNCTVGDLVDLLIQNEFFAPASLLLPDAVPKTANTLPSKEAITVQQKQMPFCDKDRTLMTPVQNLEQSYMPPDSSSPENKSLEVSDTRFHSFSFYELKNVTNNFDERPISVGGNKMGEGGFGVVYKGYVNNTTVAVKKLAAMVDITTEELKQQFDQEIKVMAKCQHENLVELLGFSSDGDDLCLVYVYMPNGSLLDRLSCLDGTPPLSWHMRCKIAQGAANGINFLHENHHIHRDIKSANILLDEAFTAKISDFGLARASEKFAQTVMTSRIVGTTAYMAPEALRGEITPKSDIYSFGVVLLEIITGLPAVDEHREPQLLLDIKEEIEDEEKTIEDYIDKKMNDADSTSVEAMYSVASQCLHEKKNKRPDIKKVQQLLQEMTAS
# In short: as §1
Compound,IC50 (FLT3) [µM],IC50 (IRAK1) [µM],IC50 (IRAK4) [µM]
"COc1cc2ncc(-c3nc(N[C@H]4CNCC[C@@H]4F)c(F)cc3F)n2nc1C(C)(O)C(F)(F)F (single isomer, unassigned) [Compound 77a]",< 0.0005,0.362,0.016
"COc1cc2ncc(-c3nc(N[C@H]4CNC[C@@H]4F)c(F)cc3F)n2nc1C(C)(O)C(F)(F)F (single isomer, unassigned) [Compound 80a]",< 0.0005,1.55,0.024
"COc1cc2ncc(-c3nc(N[C@@H]4CCCNC4)c(F)cc3F)n2nc1C(C)(O)C(F)(F)F (single isomer, unassigned) [Compound 81a]",< 0.0005,0.589,0.059
"COc1cc2ncc(-c3nc(N[C@H]4CNCC[C@@H]4F)c(F)cc3F)n2nc1C1CC2(CCC2)C1 [Compound 10a, 3,5-difluoro-N-((3S,4S)-4-fluoropiperidin-3-yl)-6-(7-methoxy-6-(spiro[3.3]heptan-2-yl)imidazo[1,2-b]pyridazin-3-yl)pyridin-2-amine]",< 0.0005,0.072,0.022
"COc1cc2ncc(-c3nc(N[C@H]4CNC[C@@H]4F)c(F)cc3F)n2nc1C1CC2(CCC2)C1 [Compound 12a, 3,5-difluoro-N-((3S,4S)-4-fluoropyrrolidin-3-yl)-6-(7-methoxy-6-(spiro[3.3]heptan-2-yl)imidazo[1,2-b]pyridazin-3-yl)pyridin-2-amine]",< 0.0005,0.088,0.006
"COc1cc2ncc(-c3nc(N[C@H]4CNCC[C@@H]4F)c(F)cc3F)n2nc1C1CCC1 [Compound 15a, 6-(6-cyclobutyl-7-methoxyimidazo[1,2-b]pyridazin-3-yl)-3,5-difluoro-N-((3S,4S)-4-fluoropiperidin-3-yl)pyridin-2-amine]",< 0.0005,0.012,0.002
"COc1cc2ncc(-c3nc(N[C@H]4CNCC[C@@H]4F)c(F)cc3F)n2nc1C12CC(C1)C2 [Compound 67a, 6-(6-(bicyclo[1.1.1]pentan-1-yl)-7-methoxyimidazo[1,2-b]pyridazin-3-yl)-3,5-difluoro-N-((3S,4S)-4-fluoropiperidin-3-yl)pyridin-2-amine]",< 0.0005,0.009,0.003

# — patent US20250368648A1, “MULTI-CYCLIC IRAK AND FLT3 INHIBITING COMPOUNDS AND USES THEREOF” (CHILDREN'S HOSPITAL MEDICAL CENTER, priority 2022, published 2025)
